Like-named read-outs stand apart in the source and are kept apart here.
Experiments:
Kv1.3 potassium channel = molecular target: T1, Kv1.3 potassium channel (Homo sapiens, UniProt P22001); test: Kv1.3 potassium channel blocker activity, automated whole-cell patch clamp (Patchliner); assay type: cell-based; conditions: CHO-K1 cells stably expressing Kv1.3; whole cell current inhibition; read-out: Kvl.3 IC50
T1 construct: expressed in transfected cells
Procedure: This assay is used to evaluate the disclosed compounds' activities as Kv1.3 potassium channel blockers.
CHO-K1 cells stably expressing Kv1.3 were grown in DMEM containing 10% heat-inactivated FBS, 1 mM Sodium Pyruvate, 2 mM L-Glutamine and G418 (500 μg/ml).
(§1) All compounds were dissolved in DMSO at 30 mM.
The currents were evoked by applying 100 ms depolarizing pulses from −90 mV (holding potential) to +40 mV were applied with 0.1 Hz frequency. […] 10 second breaks were used between pulse trains (see Table A below).
Data were sampled at 10 kHz without filtering. Passive leak currents were subtracted online using a P/4 procedure (HEKA Elektronik Dr. Schulze GmbH). […] Total compound incubation time before the next pulse train was not longer than 10 seconds. Peak current inhibition was observed during compound equilibration.

hERG channel = molecular target: T2, hERG channel (Homo sapiens, UniProt Q12809); test: hERG electrophysiology, automated whole-cell patch clamp (Patchliner); assay type: cell-based
T2 construct: expressed in transfected cells
Procedure: as §1
The pulse frequency was 0.3 Hz.
Data were sampled at 10 kHz without filtering.

[1] = CHO-K1 cells stably expressing hERG, whole cell current inhibition, read-out: hERG IC50

T1 sequence (P22001 whole entry): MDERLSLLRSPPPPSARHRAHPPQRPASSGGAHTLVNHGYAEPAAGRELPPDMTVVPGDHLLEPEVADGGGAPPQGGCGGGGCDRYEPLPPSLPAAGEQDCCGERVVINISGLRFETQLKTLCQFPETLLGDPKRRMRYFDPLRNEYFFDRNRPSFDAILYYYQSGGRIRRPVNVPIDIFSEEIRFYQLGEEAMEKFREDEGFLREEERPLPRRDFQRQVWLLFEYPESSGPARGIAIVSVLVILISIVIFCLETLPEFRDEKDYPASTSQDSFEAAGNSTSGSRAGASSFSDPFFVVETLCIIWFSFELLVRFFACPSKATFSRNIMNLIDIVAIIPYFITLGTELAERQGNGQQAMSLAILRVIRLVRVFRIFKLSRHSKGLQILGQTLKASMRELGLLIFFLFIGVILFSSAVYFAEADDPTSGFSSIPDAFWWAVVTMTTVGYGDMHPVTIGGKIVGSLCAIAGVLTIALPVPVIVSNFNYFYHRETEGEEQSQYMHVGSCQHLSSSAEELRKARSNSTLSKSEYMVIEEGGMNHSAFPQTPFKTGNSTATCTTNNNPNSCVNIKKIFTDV
T2 sequence (Q12809 whole entry): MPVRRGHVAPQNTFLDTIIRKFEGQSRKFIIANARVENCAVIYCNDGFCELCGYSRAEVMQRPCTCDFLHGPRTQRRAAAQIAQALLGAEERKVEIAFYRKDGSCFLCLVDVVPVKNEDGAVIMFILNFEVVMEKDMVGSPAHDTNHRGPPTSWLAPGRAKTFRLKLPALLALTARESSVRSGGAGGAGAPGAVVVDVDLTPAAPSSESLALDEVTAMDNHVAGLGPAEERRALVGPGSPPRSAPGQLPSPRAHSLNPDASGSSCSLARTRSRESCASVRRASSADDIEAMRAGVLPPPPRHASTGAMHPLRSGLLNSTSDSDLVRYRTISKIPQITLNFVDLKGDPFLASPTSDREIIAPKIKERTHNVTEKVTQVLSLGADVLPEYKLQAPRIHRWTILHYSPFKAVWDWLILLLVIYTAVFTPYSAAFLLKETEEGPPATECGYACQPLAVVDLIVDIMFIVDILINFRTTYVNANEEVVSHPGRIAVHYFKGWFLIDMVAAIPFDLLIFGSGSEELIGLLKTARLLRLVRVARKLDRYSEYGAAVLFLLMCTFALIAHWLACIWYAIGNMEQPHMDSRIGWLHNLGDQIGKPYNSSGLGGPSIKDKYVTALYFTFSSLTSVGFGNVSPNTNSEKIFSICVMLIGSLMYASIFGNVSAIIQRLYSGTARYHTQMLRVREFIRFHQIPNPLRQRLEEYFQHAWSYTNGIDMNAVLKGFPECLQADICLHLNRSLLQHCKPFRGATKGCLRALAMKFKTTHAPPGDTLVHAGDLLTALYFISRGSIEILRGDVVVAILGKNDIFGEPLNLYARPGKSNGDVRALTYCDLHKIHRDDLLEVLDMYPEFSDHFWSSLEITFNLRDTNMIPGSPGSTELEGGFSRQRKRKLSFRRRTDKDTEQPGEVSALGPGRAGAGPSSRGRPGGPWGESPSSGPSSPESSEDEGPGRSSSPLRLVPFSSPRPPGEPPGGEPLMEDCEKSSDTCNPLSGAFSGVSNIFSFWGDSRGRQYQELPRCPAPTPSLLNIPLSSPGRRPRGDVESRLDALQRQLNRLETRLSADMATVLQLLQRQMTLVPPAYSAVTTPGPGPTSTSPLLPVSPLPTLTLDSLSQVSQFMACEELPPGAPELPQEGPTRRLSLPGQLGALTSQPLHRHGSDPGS

Which results are given for `OCC1(c2ccccc2)CCN(Cc2cc(Cl)c(Cl)cc2O)CC1` [Compound 22, 4,5-dichloro-2-[[4-(hydroxymethyl)-4-phenylpiperidin-1-yl]methyl]phenol]?
IC50 (Kv1.3 potassium channel): < 1 µM; IC50 (hERG channel; [1]): < 30 µM

Which results are given for `OCCC1CCN(Cc2cc(Cl)c(Cl)cc2O)CC1` [Compound 39, 4,5-dichloro-2-((4-(2-hydroxyethyl)piperidin-1-yl)methyl)phenol]?
IC50 (Kv1.3 potassium channel): < 10 µM; IC50 (hERG channel; [1]): < 30 µM

Which results are given for `Oc1cc(Cl)c(Cl)cc1CN1CCC(c2ccn[nH]2)CC1` [Compound 30, 2-((4-(1H-pyrazol-5-yl)piperidin-1-yl)methyl)-4,5-dichlorophenol]?
IC50 (Kv1.3 potassium channel): < 10 µM; IC50 (hERG channel; [1]): < 30 µM

What does the source list for `Cc1cc(O)c(CN2CCC(CO)CC2)cc1Cl` [Compound 19, 4-chloro-2-[[4-(hydroxymethyl)piperidin-1-yl]methyl]-5-methylphenol]?
IC50 (Kv1.3 potassium channel): < 1 µM; IC50 (hERG channel; [1]): > 30 µM

With `OCC1CCN(Cc2cc(Cl)c(Cl)cc2O)CC1` [Compound 65, 4,5-dichloro-2-((4-(hydroxymethyl)piperidin-1-yl)methyl)phenol] as the compound, how does the IC50 (Kv1.3 potassium channel) read?
Its IC50 is less than 10 µM.

What about the IC50 (hERG channel; [1]) of the same compound?
The IC50 was less than 30 µM.

How did the IC50 (Kv1.3 potassium channel) turn out when `O=C(C1CCN(Cc2cc(Br)c(Br)cc2O)CC1)N1CCCC1` [Compound 63, (1-(4,5-dibromo-2-hydroxybenzyl)piperidin-4-yl)(pyrrolidin-1-yl)methanone] was run?
Its IC50 is less than 1 µM.

What about the IC50 (hERG channel; [1]) of the same compound?
The IC50 was less than 30 µM.

Which IC50 (Kv1.3 potassium channel) does the source give for `NCC1(CO)CCN(Cc2cc(Cl)c(Cl)cc2O)CC1` [Compound 5, 2-[[4-(aminomethyl)-4-(hydroxymethyl)piperidin-1-yl]methyl]-4,5-dichlorophenol] here?
Its IC50 is less than 1 µM.

And the IC50 (hERG channel; [1])?
The IC50 was less than 30 µM.

For `NCC1(N)CCN(Cc2cc(Cl)c(Cl)cc2O)CC1` [Compound 3, 2-((4-amino-4-(aminomethyl)piperidin-1-yl)methyl)-4,5-dichlorophenol], which IC50 (Kv1.3 potassium channel) is on record?
The IC50 was less than 1 µM.

And the IC50 (hERG channel; [1])?
The IC50 was less than 30 µM.

Which IC50 (Kv1.3 potassium channel) does the source give for `C[C@H]1C[C@@H](CO)CCN1Cc1cc(Cl)c(Cl)cc1O` (relative stereo) [Compound 29, 4,5-dichloro-2-(((2S,4S)-rel-4-(hydroxymethyl)-2-methylpiperidin-1-yl)methyl)phenol] here?
Its IC50 is less than 1 µM.

And the IC50 (hERG channel; [1])?
The IC50 was less than 30 µM.

`OCC1CCN(Cc2cc(Cl)c(Cl)cc2O)C1` (stereo not drawn) [Compound 44, 4,5-dichloro-2-[[3-(hydroxymethyl)pyrrolidin-1-yl]methyl]phenol] was tested. Which IC50 (Kv1.3 potassium channel) did it give?
The IC50 was less than 10 µM.

And the IC50 (hERG channel; [1])?
The IC50 was less than 30 µM.

Which results are given for `OCC1CCCN(Cc2cc(Cl)c(Cl)cc2O)CC1` (stereo not drawn) [Compound 27, 4,5-dichloro-2-[[4-(hydroxymethyl)azepan-1-yl]methyl]phenol]?
IC50 (Kv1.3 potassium channel): < 1 µM; IC50 (hERG channel; [1]): < 30 µM

Which results are given for `Oc1cc(Cl)c(Cl)cc1CN1CCC2(CC1)OCCC2O` (stereo not drawn) [Compound 26, 8-(4,5-dichloro-2-hydroxybenzyl)-1-oxa-8-azaspiro[4.5]decan-4-ol]?
IC50 (Kv1.3 potassium channel): < 1 µM; IC50 (hERG channel; [1]): < 30 µM

Which results are given for `NCC1(O)CCN(Cc2cc(Cl)c(Cl)cc2O)CC1` [Compound 9, 4-(aminomethyl)-1-[(4,5-dichloro-2-hydroxyphenyl)methyl]piperidin-4-ol trifluoroacetic acid]?
IC50 (Kv1.3 potassium channel): < 1 µM; IC50 (hERG channel; [1]): < 30 µM

Which IC50 (Kv1.3 potassium channel) does the source give for `N#CC1(CO)CCN(Cc2cc(Cl)c(Cl)cc2O)CC1` [Compound 54, 1-[(4,5-dichloro-2-hydroxyphenyl)methyl]-4-(hydroxymethyl)piperidine-4-carbonitrile] here?
Its IC50 is less than 10 µM.

And the IC50 (hERG channel; [1])?
Its IC50 is less than 30 µM.

How did the IC50 (Kv1.3 potassium channel) turn out when `Oc1cc(Cl)c(Cl)cc1CN1CCc2[nH]ncc2C1` [Compound 25, 4,5-dichloro-2-((6,7-dihydro-1H-pyrazolo[4,3-c]pyridin-5(4H)-yl)methyl)phenol] was run?
Its IC50 is less than 10 µM.

And the IC50 (hERG channel; [1])?
The IC50 was less than 30 µM.

For `Oc1cc(Cl)c(Cl)cc1CN1CCC2(CC1)COCC2O` (stereo not drawn) [Compound 40], which IC50 (Kv1.3 potassium channel) is on record?
Its IC50 is less than 1 µM.

And the IC50 (hERG channel)?
Its IC50 is less than 30 µM.

With `COCC1CCN(Cc2cc(Cl)c(Cl)cc2O)CC1` [Compound 56, 4,5-dichloro-2-[[4-(methoxymethyl)piperidin-1-yl]methyl]phenol] as the compound, how does the IC50 (Kv1.3 potassium channel) read?
Its IC50 is less than 10 µM.

What about the IC50 (hERG channel; [1]) of the same compound?
The IC50 was less than 30 µM.

`CC1CCN(Cc2cc(Cl)c(Cl)cc2O)CC1` [Compound 64, 4,5-dichloro-2-((4-methylpiperidin-1-yl)methyl)phenol] was tested. Which IC50 (Kv1.3 potassium channel) did it give?
Its IC50 is less than 10 µM.

What about the IC50 (hERG channel; [1]) of the same compound?
Its IC50 is less than 30 µM.

With `OCC1CCN(Cc2cc(Br)c(Br)cc2O)CC1` [Compound 60, 4,5-dibromo-2-((4-(hydroxymethyl)piperidin-1-yl)methyl)phenol] as the compound, how does the IC50 (Kv1.3 potassium channel) read?
Its IC50 is less than 1 µM.

And the IC50 (hERG channel; [1])?
The IC50 was less than 30 µM.

`NC1(CO)CCN(Cc2cc(Cl)c(Cl)cc2O)CC1` [Compound 14, 2-[[4-amino-4-(hydroxymethyl)piperidin-1-yl]methyl]-4,5-dichlorophenol] was tested. Which IC50 (Kv1.3 potassium channel) did it give?
The IC50 was less than 1 µM.

What about the IC50 (hERG channel; [1]) of the same compound?
Its IC50 is less than 30 µM.

With `CCC(c1cc(Cl)c(Cl)cc1O)N1CCC(CO)CC1` (stereo not drawn) [Compound 18, 4,5-dichloro-2-[1-[4-(hydroxymethyl)piperidin-1-yl]propyl]phenol] as the compound, how does the IC50 (Kv1.3 potassium channel) read?
Its IC50 is less than 10 µM.

And the IC50 (hERG channel; [1])?
The IC50 was less than 30 µM.

For `OCC1(O)CCN(Cc2cc(Cl)c(Cl)cc2O)CC1` [Compound 48, 1-[(4,5-dichloro-2-hydroxyphenyl)methyl]-4-(hydroxymethyl)piperidin-4-ol], which IC50 (Kv1.3 potassium channel) is on record?
The IC50 was less than 10 µM.

What about the IC50 (hERG channel; [1]) of the same compound?
The IC50 was less than 30 µM.

How did the IC50 (Kv1.3 potassium channel) turn out when `NCC1CCN(Cc2cc(Cl)c(Cl)cc2O)CC1` [Compound 61, 2-((4-(aminomethyl)piperidin-1-yl)methyl)-4,5-dichlorophenol] was run?
The IC50 was less than 1 µM.

What about the IC50 (hERG channel; [1]) of the same compound?
Its IC50 is less than 30 µM.

`CC(=O)NCC1(CO)CCN(Cc2cc(Cl)c(Cl)cc2O)CC1` [Compound 21, N-([1-[(4,5-dichloro-2-hydroxyphenyl)methyl]-4-(hydroxymethyl)piperidin-4-yl]methyl)acetamide] was tested. Which IC50 (Kv1.3 potassium channel) did it give?
The IC50 was less than 1 µM.

And the IC50 (hERG channel; [1])?
The IC50 was less than 30 µM.

Source: patent publication US20220411367A1, “ARYLMETHYLENE HETEROCYCLIC COMPOUNDS AS KV1.3 POTASSIUM SHAKER CHANNEL BLOCKERS” (D. E. Shaw Research, LLC, priority 2019, published 2022)
